In US8957096B2, “Herbicidally active oxime-ether-substituted benzoylamides” (Bayer Intellectual Property GmbH, priority 2011, dated 2015):

Assays:
Format in all cases: in vivo
Amaranthus retroflexus [1] = assay: Pre-emergence herbicidal action against harmful plants; conditions: 504 h, application rate 320 g/ha, assessed visually after 3 weeks vs untreated controls, read-out: herbicidal activity in percent (%)
Text: (§1) 1. Pre-Emergence Herbicidal Action Against Harmful Plants Seeds of monocotyledonous and dicotyledonous weed plants and crop plants are placed in wood-fiber pots in sandy loam and covered with soil. The compounds according to the invention, formulated in the form of wettable powders (WP) or as emulsion concentrates (EC), are then applied as aqueous suspension or emulsion at a water application rate of 600 to 800 l/ha (converted) with the addition of 0.2% of wetting agent to the surface of the covering soil. After the treatment, the pots are placed in a greenhouse and kept under good growth conditions for the test plants. The damage to the test plants is assessed visually after a test period of 3 weeks by comparison with untreated controls (herbicidal activity in percent (%): 100% activity=the plants have died, 0% activity=like control plants). Here, the compounds Nos. 1-002, 1-004, 1-007, 1-008, 1-043, 1-044, 1-046, 1-047, 1-060, 1-079, 1-080, 1-082, 1-083, 1-085, 1-095, 1-096, 1-098, 1-099, 1-059, 2-015, 3-015, 3-018, 3-020, 4-001, 4-118, 5-004, 5-017, 5-043, 5-056, 5-082, 5-095, 6-017, 7-017, 8-017 and 8-014, for example, each show, at an application rate of 320 g/ha, an activity of at least 80% against Abuthilon theophrasti and Amaranthus retroflexus. The compounds Nos. 1-001, 1-005, 1-014, 1-015, 1-017, 1-018, 1-020, 1-033, 1-040, 1-041, 1-053, 1-054, 1-056, 1-057, 1-092, 1-093, 3-014, 3-015, 8-014, 8-017 and 8-015 each show, at an application rate of 320 g/ha, an activity of at least 80% against Setaria viridis and Stellaria media. The compounds Nos. 3-017, 4-092 and 6-004 show, at an application rate of 320 g/ha, an activity of at least 80% against Amaranthus retroflexus and Veronica persica.

Amaranthus retroflexus [2] = assay: Post-emergence herbicidal action against harmful plants; conditions: 504 h, application rate 80 g/ha, assessed visually after about 3 weeks vs untreated controls, read-out: herbicidal action in percent (%)
Procedure: (§2) 2. Post-Emergence Herbicidal Action Against Harmful Plants Seeds of monocotyledonous and dicotyledonous weed and crop plants are placed in sandy loam in wood-fiber pots, covered with soil and cultivated in a greenhouse under good growth conditions. 2 to 3 weeks after sowing, the test plants are treated at the one-leaf stage. The inventive compounds formulated in the form of wettable powders (WP) or as emulsion concentrates (EC) are then sprayed onto the green parts of the plants as an aqueous suspension or emulsion at a water application rate of 600 to 800 l/ha (converted) with addition of 0.2% wetting agent. After the test plants have been left to stand in the greenhouse under optimal growth conditions for about 3 weeks, the action of the formulations is assessed visually in comparison to untreated controls (herbicidal action in percent (%): 100% activity=the plants have died, 0% activity=like control plants). Here, the compounds Nos. 1-001, 1-002, 1-004, 1-005, 1-007, 1-008, 1-014, 1-015, 1-017, 1-018, 1-020, 1-033, 1-040, 1-041, 1-043, 1-044, 1-046, 1-047, 1-053, 1-054, 1-056, 1-057, 1-059, 1-060, 1-079, 1-080, 1-082, 1-083, 1-086, 1-092, 1-093, 1-095, 1-096, 1-098, 1-099, 2-015, 3-014, 3-015, 3-017, 3-018, 3-020, 5-082, 5-095, 6-017, 7-017 and 8-014 each show, at an application rate of 80 g/ha, an activity of at least 80% against Abuthilon theophrasti, Amaranthus retroflexus and Stellaria media. The compounds Nos. 4-092, 4-093, 5-004, 5-017, 5-043 and 5-056 each show, at an application rate of 80 g/ha, an activity of at least 80% against Echinocloa crus galli, Pharbitis purpureum and Stellaria media.

Abuthilon theophrasti [3] = assay: as above; conditions: 504 h, application rate 80 g/ha, assessed visually after about 3 weeks vs untreated controls, read-out: herbicidal action in percent (%)
Procedure: as §2

Stellaria media [4] = assay: as above; conditions: 504 h, application rate 80 g/ha, assessed visually after about 3 weeks vs untreated controls, read-out: herbicidal action in percent (%)
Procedure: as §2

Setaria viridis = assay: Pre-emergence herbicidal action against harmful plants; conditions: 504 h, application rate 320 g/ha, assessed visually after 3 weeks vs untreated controls, read-out: herbicidal activity in percent (%)
Text: as §1

Stellaria media [5] = assay: as above; conditions: 504 h, application rate 320 g/ha, assessed visually after 3 weeks vs untreated controls, read-out: herbicidal activity in percent (%)
Text: as §1

Abuthilon theophrasti [6] = assay: as above; conditions: 504 h, application rate 320 g/ha, assessed visually after 3 weeks vs untreated controls, read-out: herbicidal activity in percent (%)
Text: as §1

CC(C)=NOCc1c(Cl)ccc(C(=O)Nc2ncnn2C)c1Cl [6-004]
≥ 80%: pest or weed control at 320 g/ha (Amaranthus retroflexus [1])

CCn1nnnc1NC(=O)c1ccc(Cl)c(/C=N/OC)c1Cl [1-040]
≥ 80%: pest or weed control at 80 g/ha (Amaranthus retroflexus [2]) | pest or weed control at 80 g/ha (Abuthilon theophrasti [3]) | pest or weed control at 80 g/ha (Stellaria media [4]) | pest or weed control at 320 g/ha (Setaria viridis) | pest or weed control at 320 g/ha (Stellaria media [5])

CC(C)=NOCc1c(S(C)(=O)=O)ccc(C(=O)Nc2nnnn2C)c1Cl [5-017]
≥ 80%: pest or weed control at 80 g/ha (Stellaria media [4]) | pest or weed control at 320 g/ha (Amaranthus retroflexus [1]) | pest or weed control at 320 g/ha (Abuthilon theophrasti [6])

CCCn1nnnc1NC(=O)c1ccc(Cl)c(CON=C(C)C)c1Cl [5-082]
≥ 80%: pest or weed control at 80 g/ha (Amaranthus retroflexus [2]) | pest or weed control at 80 g/ha (Abuthilon theophrasti [3]) | pest or weed control at 80 g/ha (Stellaria media [4]) | pest or weed control at 320 g/ha (Amaranthus retroflexus [1]) | pest or weed control at 320 g/ha (Abuthilon theophrasti [6])

CCCn1nnnc1NC(=O)c1ccc(S(C)(=O)=O)c(CON=C(C)C)c1Cl [5-095]
≥ 80%: pest or weed control at 80 g/ha (Amaranthus retroflexus [2]) | pest or weed control at 80 g/ha (Abuthilon theophrasti [3]) | pest or weed control at 80 g/ha (Stellaria media [4]) | pest or weed control at 320 g/ha (Amaranthus retroflexus [1]) | pest or weed control at 320 g/ha (Abuthilon theophrasti [6])

CCO/N=C/c1c(S(C)(=O)=O)ccc(C(=O)Nc2nnnn2CC)c1Cl [1-054]
≥ 80%: pest or weed control at 80 g/ha (Amaranthus retroflexus [2]) | pest or weed control at 80 g/ha (Abuthilon theophrasti [3]) | pest or weed control at 80 g/ha (Stellaria media [4]) | pest or weed control at 320 g/ha (Setaria viridis) | pest or weed control at 320 g/ha (Stellaria media [5])

CC(C)=NOCc1c(Cl)ccc(C(=O)Nc2nnnn2C)c1Cl [5-004]
≥ 80%: pest or weed control at 80 g/ha (Stellaria media [4]) | pest or weed control at 320 g/ha (Amaranthus retroflexus [1]) | pest or weed control at 320 g/ha (Abuthilon theophrasti [6])

CO/N=C/c1c(Cl)ccc(C(=O)Nc2nnc(C)o2)c1Cl [4-001]
≥ 80%: pest or weed control at 320 g/ha (Amaranthus retroflexus [1]) | pest or weed control at 320 g/ha (Abuthilon theophrasti [6])

CCO/N=C/c1c(Cl)ccc(C(=O)Nc2nnnn2C)c1Cl [1-002]
≥ 80%: pest or weed control at 80 g/ha (Amaranthus retroflexus [2]) | pest or weed control at 80 g/ha (Abuthilon theophrasti [3]) | pest or weed control at 80 g/ha (Stellaria media [4]) | pest or weed control at 320 g/ha (Amaranthus retroflexus [1]) | pest or weed control at 320 g/ha (Abuthilon theophrasti [6])

CCO/N=C/c1c(Cl)ccc(C(=O)Nc2nnnn2CC)c1Cl [1-041]
≥ 80%: pest or weed control at 80 g/ha (Amaranthus retroflexus [2]) | pest or weed control at 80 g/ha (Abuthilon theophrasti [3]) | pest or weed control at 80 g/ha (Stellaria media [4]) | pest or weed control at 320 g/ha (Setaria viridis) | pest or weed control at 320 g/ha (Stellaria media [5])

CCCn1nnnc1NC(=O)c1ccc(S(C)(=O)=O)c(/C=N/OC)c1Cl [1-092]
≥ 80%: pest or weed control at 80 g/ha (Amaranthus retroflexus [2]) | pest or weed control at 80 g/ha (Abuthilon theophrasti [3]) | pest or weed control at 80 g/ha (Stellaria media [4]) | pest or weed control at 320 g/ha (Setaria viridis) | pest or weed control at 320 g/ha (Stellaria media [5])

CC(C)=NOCc1c(S(C)(=O)=O)ccc(C(=O)Nc2nonc2C)c1Cl [7-017]
≥ 80%: pest or weed control at 80 g/ha (Amaranthus retroflexus [2]) | pest or weed control at 80 g/ha (Abuthilon theophrasti [3]) | pest or weed control at 80 g/ha (Stellaria media [4]) | pest or weed control at 320 g/ha (Amaranthus retroflexus [1]) | pest or weed control at 320 g/ha (Abuthilon theophrasti [6])

CC=NOCc1c(S(C)(=O)=O)ccc(C(=O)Nc2nnc(C)o2)c1Cl [8-015]
≥ 80%: pest or weed control at 320 g/ha (Setaria viridis) | pest or weed control at 320 g/ha (Stellaria media [5])

CO/N=C/c1c(S(C)(=O)=O)ccc(C(=O)Nc2nnnn2C)c1Cl [1-014]
≥ 80%: pest or weed control at 80 g/ha (Amaranthus retroflexus [2]) | pest or weed control at 80 g/ha (Abuthilon theophrasti [3]) | pest or weed control at 80 g/ha (Stellaria media [4]) | pest or weed control at 320 g/ha (Setaria viridis) | pest or weed control at 320 g/ha (Stellaria media [5])

CCn1nnnc1NC(=O)c1ccc(Cl)c(CON=C(C)C)c1Cl [5-043]
≥ 80%: pest or weed control at 80 g/ha (Stellaria media [4]) | pest or weed control at 320 g/ha (Amaranthus retroflexus [1]) | pest or weed control at 320 g/ha (Abuthilon theophrasti [6])

CO/N=C/c1c(Cl)ccc(C(=O)Nc2nnnn2C)c1Cl [1-001]
≥ 80%: pest or weed control at 80 g/ha (Amaranthus retroflexus [2]) | pest or weed control at 80 g/ha (Abuthilon theophrasti [3]) | pest or weed control at 80 g/ha (Stellaria media [4]) | pest or weed control at 320 g/ha (Setaria viridis) | pest or weed control at 320 g/ha (Stellaria media [5])

CCn1nnnc1NC(=O)c1ccc(S(C)(=O)=O)c(CON=C(C)C)c1Cl [5-056]
≥ 80%: pest or weed control at 80 g/ha (Stellaria media [4]) | pest or weed control at 320 g/ha (Amaranthus retroflexus [1]) | pest or weed control at 320 g/ha (Abuthilon theophrasti [6])

CCCn1nnnc1NC(=O)c1ccc(Cl)c(/C=N/OC)c1Cl [1-079]
≥ 80%: pest or weed control at 80 g/ha (Amaranthus retroflexus [2]) | pest or weed control at 80 g/ha (Abuthilon theophrasti [3]) | pest or weed control at 80 g/ha (Stellaria media [4]) | pest or weed control at 320 g/ha (Amaranthus retroflexus [1]) | pest or weed control at 320 g/ha (Abuthilon theophrasti [6])

CCn1nnnc1NC(=O)c1ccc(S(C)(=O)=O)c(/C=N/OC)c1Cl [1-053]
≥ 80%: pest or weed control at 80 g/ha (Amaranthus retroflexus [2]) | pest or weed control at 80 g/ha (Abuthilon theophrasti [3]) | pest or weed control at 80 g/ha (Stellaria media [4]) | pest or weed control at 320 g/ha (Setaria viridis) | pest or weed control at 320 g/ha (Stellaria media [5])

CCCn1nnnc1NC(=O)c1ccc(S(C)(=O)=O)c(/C=N/OCC)c1Cl [1-093]
≥ 80%: pest or weed control at 80 g/ha (Amaranthus retroflexus [2]) | pest or weed control at 80 g/ha (Abuthilon theophrasti [3]) | pest or weed control at 80 g/ha (Stellaria media [4]) | pest or weed control at 320 g/ha (Setaria viridis) | pest or weed control at 320 g/ha (Stellaria media [5])

CCO/N=C/c1c(S(C)(=O)=O)ccc(C(=O)Nc2ncnn2C)c1Cl [2-015]
≥ 80%: pest or weed control at 80 g/ha (Amaranthus retroflexus [2]) | pest or weed control at 80 g/ha (Abuthilon theophrasti [3]) | pest or weed control at 80 g/ha (Stellaria media [4]) | pest or weed control at 320 g/ha (Amaranthus retroflexus [1]) | pest or weed control at 320 g/ha (Abuthilon theophrasti [6])

CCCn1nnnc1NC(=O)c1ccc(Cl)c(/C=N/OCC)c1Cl [1-080]
≥ 80%: pest or weed control at 80 g/ha (Amaranthus retroflexus [2]) | pest or weed control at 80 g/ha (Abuthilon theophrasti [3]) | pest or weed control at 80 g/ha (Stellaria media [4]) | pest or weed control at 320 g/ha (Amaranthus retroflexus [1]) | pest or weed control at 320 g/ha (Abuthilon theophrasti [6])

CC(C)=NOCc1c(S(C)(=O)=O)ccc(C(=O)Nc2ncnn2C)c1Cl [6-017, 2-chloro-4-(methylsulfonyl)-N-(1-methyl-1H-1,2,4-triazol-5-yl)-3-{[(propan-2-ylideneamino)oxy]methyl}benzamide]
≥ 80%: pest or weed control at 80 g/ha (Amaranthus retroflexus [2]) | pest or weed control at 80 g/ha (Abuthilon theophrasti [3]) | pest or weed control at 80 g/ha (Stellaria media [4]) | pest or weed control at 320 g/ha (Amaranthus retroflexus [1]) | pest or weed control at 320 g/ha (Abuthilon theophrasti [6])
